Test results: patent US4721787A, “Process for the preparation of benzo-(pyrano and thiopyrano)-pyridines” (Ciba-Geigy Corporation, priority 1985, dated 1988)

System: presynaptic dopamine receptor (dopamine autoreceptor)
Test: rat gamma-butyrolactone (GBL) model, in-vivo presynaptic dopamine agonist (autoreceptor agonist) activity
Conditions: i.p.
Procedure: Indicative of potential neuroleptic activity of the compounds of the invention, the in-vivo presynaptic dopamine agonist activity (also called dopamine autoreceptor agonist activity) is determined in the rat gamma-butyrolactone (GBL) model by a modification of the procedure described by Walters and Roth, Naunyn Schmiedeberg's Arch. Pharmacol. 296, 5 (1976). In this model, a presynaptic dopamine agonist inhibits the GBL-induced accumulation of the dopamine precursor DOPA after pretreatment with 3-hydroxybenzylhydrazine (NSD-1015), a DOPA decarboxylase inhibitor.
Test compounds are dissolved in 0.9% saline, with sodium metabisulfite to prevent oxidation, if required. […] Dihydroxyphenylalanine (DOPA) is analyzed by High Pressure Liquid Chromatography/Electrochemistry (HPLC/EC) techniques using a Bio-analytical Systems (BAS) Model LC-150 series Liquid Chromatograph. […] Compounds are detected with an electro-chemical detector having an oxidizing potential of 0.7 volts and sensitivity setting of 20 nAmps/V. Tissue concentrations and recoveries are calculated by using the internal standard dihydroxybenzylamine (DHBA). […] Data is statistically analysed by one-way Analysis of Variance with Duncan's Multiple Comparison Test. The activity of the test compounds is determined as the percent inhibition of DOPA accumulation at a given dose. […]

CCCN1CCC[C@@H]2c3cc(O)ccc3OC[C@H]21.Cl (relative stereo) [trans-9-hydroxy-4-propyl-1,2,3,4a,5,10b-hexahydro-4H-[1]-benzopyrano[3,4-b]pyridine hydrochloride]
ED50 in the GBL model (inhibition of DOPA accumulation by 50%): about 0.16 mg/kg
